Assays:
Mu-type opioid receptor = Mu-type opioid receptor (Homo sapiens, UniProt P35372)
[1] = biological target: T1, Alpha-1A adrenergic receptor (Homo sapiens, UniProt P35348); format: functional, cell-based
T1 sequence (P35348 whole entry): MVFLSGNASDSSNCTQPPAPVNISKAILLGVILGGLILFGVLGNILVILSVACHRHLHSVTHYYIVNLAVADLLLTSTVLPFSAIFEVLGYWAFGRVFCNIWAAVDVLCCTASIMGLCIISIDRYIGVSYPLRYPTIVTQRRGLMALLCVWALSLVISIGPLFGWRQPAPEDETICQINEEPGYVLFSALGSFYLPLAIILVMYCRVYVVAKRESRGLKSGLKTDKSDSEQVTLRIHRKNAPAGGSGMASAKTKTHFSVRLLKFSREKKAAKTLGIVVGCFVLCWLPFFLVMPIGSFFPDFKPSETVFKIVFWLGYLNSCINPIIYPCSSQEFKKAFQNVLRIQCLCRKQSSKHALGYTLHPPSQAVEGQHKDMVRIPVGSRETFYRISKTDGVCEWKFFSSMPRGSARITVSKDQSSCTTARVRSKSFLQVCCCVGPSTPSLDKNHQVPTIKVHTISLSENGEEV

[2] = biological target: T2, Muscarinic acetylcholine receptor M2 (Homo sapiens, UniProt P08172)
T2 sequence (P08172 whole entry): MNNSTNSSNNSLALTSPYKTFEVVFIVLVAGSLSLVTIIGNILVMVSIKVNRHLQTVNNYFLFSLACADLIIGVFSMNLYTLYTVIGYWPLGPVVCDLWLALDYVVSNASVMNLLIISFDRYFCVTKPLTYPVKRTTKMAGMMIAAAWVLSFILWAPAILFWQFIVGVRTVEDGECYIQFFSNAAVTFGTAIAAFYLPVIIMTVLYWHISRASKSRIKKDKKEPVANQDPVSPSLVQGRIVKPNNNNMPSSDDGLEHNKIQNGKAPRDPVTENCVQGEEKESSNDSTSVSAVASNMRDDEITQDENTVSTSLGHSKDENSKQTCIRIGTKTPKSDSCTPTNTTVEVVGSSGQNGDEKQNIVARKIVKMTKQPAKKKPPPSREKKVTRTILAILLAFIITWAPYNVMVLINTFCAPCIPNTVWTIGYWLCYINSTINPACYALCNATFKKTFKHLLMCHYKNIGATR

[3] = biological target: 3',5'-cyclic-AMP phosphodiesterase 4A (Homo sapiens, UniProt P27815); format: functional
Sequence of 3',5'-cyclic-AMP phosphodiesterase 4A (P27815 whole entry): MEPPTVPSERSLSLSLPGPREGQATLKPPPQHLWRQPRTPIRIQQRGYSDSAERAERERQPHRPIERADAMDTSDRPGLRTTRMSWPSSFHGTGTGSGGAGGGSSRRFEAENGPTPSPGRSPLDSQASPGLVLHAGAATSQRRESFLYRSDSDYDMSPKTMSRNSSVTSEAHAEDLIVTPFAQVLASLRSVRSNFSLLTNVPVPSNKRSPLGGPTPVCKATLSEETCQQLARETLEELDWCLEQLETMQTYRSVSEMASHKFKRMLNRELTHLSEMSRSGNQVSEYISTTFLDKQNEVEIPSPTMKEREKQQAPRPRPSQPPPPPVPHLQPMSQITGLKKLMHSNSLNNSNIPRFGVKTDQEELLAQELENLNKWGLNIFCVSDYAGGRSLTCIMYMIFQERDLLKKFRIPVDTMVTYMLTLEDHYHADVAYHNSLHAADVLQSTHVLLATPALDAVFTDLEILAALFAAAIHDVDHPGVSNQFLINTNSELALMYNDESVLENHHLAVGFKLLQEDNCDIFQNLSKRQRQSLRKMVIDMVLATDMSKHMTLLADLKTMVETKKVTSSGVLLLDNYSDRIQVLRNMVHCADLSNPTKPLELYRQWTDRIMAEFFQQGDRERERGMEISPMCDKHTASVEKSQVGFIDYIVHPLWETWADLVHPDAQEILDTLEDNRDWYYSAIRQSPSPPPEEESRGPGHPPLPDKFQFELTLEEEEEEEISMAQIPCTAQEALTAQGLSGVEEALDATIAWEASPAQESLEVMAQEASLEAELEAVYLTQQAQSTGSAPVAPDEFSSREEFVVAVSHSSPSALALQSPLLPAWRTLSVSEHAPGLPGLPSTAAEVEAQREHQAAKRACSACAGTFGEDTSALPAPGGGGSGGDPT

[4] = biological target: T3, Prostaglandin G/H synthase 1 (Homo sapiens, UniProt P23219); format: functional
T3 sequence (P23219 whole entry): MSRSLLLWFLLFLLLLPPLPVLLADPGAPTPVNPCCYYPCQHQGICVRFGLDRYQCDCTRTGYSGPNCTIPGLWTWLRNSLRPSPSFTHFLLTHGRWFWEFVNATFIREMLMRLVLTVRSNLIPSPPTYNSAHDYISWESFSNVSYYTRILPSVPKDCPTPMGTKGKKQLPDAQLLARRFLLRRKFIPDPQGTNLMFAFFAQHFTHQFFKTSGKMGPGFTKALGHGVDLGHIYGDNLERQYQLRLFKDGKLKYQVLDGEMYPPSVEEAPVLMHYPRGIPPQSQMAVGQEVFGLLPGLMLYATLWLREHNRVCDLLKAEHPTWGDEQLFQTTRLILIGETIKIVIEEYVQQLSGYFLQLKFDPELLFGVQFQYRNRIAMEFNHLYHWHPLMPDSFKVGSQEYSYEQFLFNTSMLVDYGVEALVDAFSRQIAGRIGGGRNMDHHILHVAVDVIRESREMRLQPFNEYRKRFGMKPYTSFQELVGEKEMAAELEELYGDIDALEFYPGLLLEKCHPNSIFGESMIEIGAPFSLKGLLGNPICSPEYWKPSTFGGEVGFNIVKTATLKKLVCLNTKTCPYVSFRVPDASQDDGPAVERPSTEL

[5] = biological target: Sodium-dependent serotonin transporter (Homo sapiens, UniProt P31645)
Sequence of Sodium-dependent serotonin transporter (P31645 whole entry): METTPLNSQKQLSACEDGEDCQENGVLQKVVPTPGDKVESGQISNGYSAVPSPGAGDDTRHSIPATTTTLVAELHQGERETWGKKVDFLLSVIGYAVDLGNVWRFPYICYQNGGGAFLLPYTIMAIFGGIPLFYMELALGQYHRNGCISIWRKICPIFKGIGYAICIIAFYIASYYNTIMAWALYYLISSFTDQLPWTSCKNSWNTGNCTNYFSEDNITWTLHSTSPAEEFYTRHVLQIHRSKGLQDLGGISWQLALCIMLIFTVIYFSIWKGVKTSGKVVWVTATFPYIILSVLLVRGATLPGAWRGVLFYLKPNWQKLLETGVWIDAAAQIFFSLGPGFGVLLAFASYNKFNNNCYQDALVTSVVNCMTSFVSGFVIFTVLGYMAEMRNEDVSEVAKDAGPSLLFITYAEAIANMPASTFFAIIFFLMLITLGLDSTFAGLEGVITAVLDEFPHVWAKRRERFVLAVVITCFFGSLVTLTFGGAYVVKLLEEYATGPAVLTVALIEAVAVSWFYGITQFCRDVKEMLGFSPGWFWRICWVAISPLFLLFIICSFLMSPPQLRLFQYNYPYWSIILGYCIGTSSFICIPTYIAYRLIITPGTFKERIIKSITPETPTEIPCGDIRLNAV

Estrogen receptor = biological target: T4, Estrogen receptor (Homo sapiens, UniProt P03372)
T4 sequence (P03372 whole entry): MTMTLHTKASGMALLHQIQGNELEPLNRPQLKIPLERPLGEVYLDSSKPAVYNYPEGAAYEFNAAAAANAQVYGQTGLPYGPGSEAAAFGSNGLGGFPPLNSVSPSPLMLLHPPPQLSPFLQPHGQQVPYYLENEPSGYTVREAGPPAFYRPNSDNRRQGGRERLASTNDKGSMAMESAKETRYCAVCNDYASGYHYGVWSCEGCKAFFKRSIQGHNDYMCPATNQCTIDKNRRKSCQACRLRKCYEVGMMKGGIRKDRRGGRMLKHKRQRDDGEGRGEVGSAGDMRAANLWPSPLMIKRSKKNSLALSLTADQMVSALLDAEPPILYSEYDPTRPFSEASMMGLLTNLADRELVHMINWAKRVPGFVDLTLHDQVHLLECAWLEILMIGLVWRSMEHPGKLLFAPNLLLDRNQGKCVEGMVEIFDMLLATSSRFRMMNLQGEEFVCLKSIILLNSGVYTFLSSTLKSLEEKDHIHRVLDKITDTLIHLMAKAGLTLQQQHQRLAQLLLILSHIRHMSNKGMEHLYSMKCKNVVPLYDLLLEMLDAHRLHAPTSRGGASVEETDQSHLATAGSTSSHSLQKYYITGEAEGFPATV

[6] = biological target: T5, 5-hydroxytryptamine receptor 1A (Homo sapiens, UniProt P08908)
T5 sequence (P08908 whole entry): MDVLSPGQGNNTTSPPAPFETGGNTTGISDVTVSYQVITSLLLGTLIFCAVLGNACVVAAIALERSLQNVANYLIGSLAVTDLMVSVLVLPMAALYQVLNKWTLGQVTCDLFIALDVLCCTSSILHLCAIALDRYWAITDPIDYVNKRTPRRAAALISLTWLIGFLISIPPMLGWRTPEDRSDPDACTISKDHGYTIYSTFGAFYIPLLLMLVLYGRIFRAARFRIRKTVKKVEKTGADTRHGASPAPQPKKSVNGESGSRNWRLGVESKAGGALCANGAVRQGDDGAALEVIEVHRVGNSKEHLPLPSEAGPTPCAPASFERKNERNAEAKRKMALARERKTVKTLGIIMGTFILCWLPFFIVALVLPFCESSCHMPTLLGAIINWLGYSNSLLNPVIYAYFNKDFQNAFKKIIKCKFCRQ

[7] = biological target: Sodium-dependent noradrenaline transporter (Homo sapiens, UniProt P23975)
Sequence of Sodium-dependent noradrenaline transporter (P23975 whole entry): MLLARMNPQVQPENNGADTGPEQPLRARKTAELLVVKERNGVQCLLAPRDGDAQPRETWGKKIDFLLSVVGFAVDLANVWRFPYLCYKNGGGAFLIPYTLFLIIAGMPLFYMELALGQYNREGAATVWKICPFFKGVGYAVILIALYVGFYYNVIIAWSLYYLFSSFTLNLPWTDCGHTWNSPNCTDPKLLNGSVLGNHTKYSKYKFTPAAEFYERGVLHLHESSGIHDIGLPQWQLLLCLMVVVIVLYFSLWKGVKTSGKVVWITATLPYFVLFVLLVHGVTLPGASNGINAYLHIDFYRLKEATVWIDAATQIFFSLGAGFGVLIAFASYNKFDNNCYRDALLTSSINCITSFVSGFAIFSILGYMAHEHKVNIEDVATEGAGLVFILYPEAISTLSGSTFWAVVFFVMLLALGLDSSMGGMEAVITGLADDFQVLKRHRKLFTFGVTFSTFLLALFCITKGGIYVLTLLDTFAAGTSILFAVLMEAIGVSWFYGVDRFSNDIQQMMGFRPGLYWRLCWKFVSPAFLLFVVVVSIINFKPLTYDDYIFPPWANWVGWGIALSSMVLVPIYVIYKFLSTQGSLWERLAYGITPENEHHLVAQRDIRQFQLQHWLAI

[8] = biological target: T3, Prostaglandin G/H synthase 1; format: functional; remark: listed apart in the source
[9] = biological target: T6, Amine oxidase [flavin-containing] A (Homo sapiens, UniProt P21397); format: functional
T6 sequence (P21397 whole entry): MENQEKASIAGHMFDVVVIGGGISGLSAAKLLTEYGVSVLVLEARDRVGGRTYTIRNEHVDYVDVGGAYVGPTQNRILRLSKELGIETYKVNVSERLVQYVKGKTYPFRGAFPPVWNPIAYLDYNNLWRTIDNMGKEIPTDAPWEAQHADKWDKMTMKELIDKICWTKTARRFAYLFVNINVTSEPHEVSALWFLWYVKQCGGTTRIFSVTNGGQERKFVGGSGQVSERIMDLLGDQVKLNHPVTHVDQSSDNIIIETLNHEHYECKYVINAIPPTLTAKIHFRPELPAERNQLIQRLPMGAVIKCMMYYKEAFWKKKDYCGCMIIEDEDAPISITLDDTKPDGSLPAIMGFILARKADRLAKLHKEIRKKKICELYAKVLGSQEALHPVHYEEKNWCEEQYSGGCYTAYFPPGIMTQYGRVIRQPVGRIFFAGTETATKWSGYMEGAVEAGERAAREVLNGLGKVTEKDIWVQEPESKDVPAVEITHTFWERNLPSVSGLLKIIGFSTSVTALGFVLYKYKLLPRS

[10] = biological target: 5-hydroxytryptamine receptor 2B (Homo sapiens, UniProt P41595); format: functional, cell-based
Sequence of 5-hydroxytryptamine receptor 2B (P41595 whole entry): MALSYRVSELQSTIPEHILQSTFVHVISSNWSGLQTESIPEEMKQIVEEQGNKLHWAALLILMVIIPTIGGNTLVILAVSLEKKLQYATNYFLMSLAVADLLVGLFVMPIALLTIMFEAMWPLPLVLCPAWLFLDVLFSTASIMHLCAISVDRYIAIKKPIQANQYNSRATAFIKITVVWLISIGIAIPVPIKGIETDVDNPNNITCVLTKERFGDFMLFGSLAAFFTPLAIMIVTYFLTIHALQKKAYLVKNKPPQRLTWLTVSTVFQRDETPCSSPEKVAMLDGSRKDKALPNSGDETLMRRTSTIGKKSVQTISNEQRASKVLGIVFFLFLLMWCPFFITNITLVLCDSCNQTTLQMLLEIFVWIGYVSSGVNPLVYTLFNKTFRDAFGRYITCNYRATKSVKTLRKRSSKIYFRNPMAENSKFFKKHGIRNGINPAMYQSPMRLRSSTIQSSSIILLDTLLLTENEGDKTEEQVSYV

Histamine H3 receptor = Histamine H3 receptor (Homo sapiens, UniProt Q9Y5N1)
Sequence of Histamine H3 receptor (Q9Y5N1 whole entry): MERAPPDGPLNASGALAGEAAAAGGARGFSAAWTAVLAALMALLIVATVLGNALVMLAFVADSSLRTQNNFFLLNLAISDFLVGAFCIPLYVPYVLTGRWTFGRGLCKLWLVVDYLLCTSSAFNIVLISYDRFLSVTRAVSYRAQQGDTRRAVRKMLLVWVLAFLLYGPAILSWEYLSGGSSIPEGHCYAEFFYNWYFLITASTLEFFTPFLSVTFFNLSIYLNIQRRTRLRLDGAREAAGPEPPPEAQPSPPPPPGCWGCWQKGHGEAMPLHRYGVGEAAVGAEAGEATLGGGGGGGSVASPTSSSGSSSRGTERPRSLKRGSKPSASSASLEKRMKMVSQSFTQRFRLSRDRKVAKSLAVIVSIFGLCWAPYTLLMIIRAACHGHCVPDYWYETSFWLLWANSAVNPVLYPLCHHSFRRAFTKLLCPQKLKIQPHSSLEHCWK
Note: assay procedure not described here.

Sequence of Mu-type opioid receptor (P35372 whole entry): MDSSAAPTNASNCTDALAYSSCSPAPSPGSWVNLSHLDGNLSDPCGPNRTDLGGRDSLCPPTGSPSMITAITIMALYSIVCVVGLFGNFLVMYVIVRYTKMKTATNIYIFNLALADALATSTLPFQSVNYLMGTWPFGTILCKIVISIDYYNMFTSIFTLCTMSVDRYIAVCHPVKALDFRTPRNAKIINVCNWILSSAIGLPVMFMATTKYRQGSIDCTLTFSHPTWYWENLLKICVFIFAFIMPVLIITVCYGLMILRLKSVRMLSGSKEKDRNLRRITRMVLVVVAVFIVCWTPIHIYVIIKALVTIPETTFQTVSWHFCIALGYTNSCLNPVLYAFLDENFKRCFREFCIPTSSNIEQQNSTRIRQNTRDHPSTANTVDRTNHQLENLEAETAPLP

Compound	AC50 (Mu-type opioid receptor)	AC50 [1]	AC50 [2]	AC50 [3]	AC50 [4]	AC50 [5]	AC50 (Estrogen receptor)	AC50 [6]	AC50 [7]	AC50 [8]	AC50 [9]	AC50 [10]	AC50 (Histamine H3 receptor)
C[C@]1(COc2ccc(N3CCC(Oc4ccc(OC(F)(F)F)cc4)CC3)cc2)Cn2cc([N+](=O)[O-])nc2O1	> 30 µM	> 30 µM	> 30 µM	> 30 µM	27.9 µM	2.02 µM	> 30 µM	> 30 µM	12.9 µM	> 30 µM	> 30 µM	> 30 µM	> 30 µM
CC(=O)OC(C)OC(=O)C(C)c1ccc(-c2ccccc2)c(F)c1 (stereo unspecified)	> 30 µM	> 30 µM	> 30 µM	20.2 µM	0.0309 µM	> 30 µM	> 30 µM	> 30 µM	> 30 µM	0.0212 µM	> 30 µM	> 30 µM	> 30 µM
CNC(=O)C[C@@H](N)C(=O)N[C@@H](C(=O)N[C@@H]1C(=O)N2[C@@H]1SC(C)(C)[C@@H]2C(=O)O)c1ccc(O)cc1 [ASPOXICILLIN]	> 30 µM	> 30 µM	> 30 µM	> 30 µM	> 30 µM	> 30 µM	> 30 µM	> 30 µM	> 30 µM	> 30 µM	> 30 µM	> 30 µM	> 30 µM
COC(=O)C1=C(C)NC(C)=C(C(=O)O[C@H]2CCN(Cc3ccccc3)C2)[C@H]1c1cccc([N+](=O)[O-])c1 [BARNIDIPINE]	3.24 µM	1.31 µM	2.35 µM	> 30 µM	> 30 µM	13.6 µM	> 30 µM	6.56 µM	0.635 µM	> 30 µM	> 30 µM	> 30 µM	> 30 µM
Cc1nnc(SCC2=C(C(=O)O)N3C(=O)[C@@H](NC(=O)Cn4cc(Cl)c(=O)c(Cl)c4)[C@H]3SC2)s1 [CEFAZEDONE]	> 30 µM	> 30 µM	> 30 µM	28.1 µM	8.23 µM	> 30 µM	> 30 µM	> 30 µM	> 30 µM	24.8 µM	> 30 µM	> 30 µM	> 30 µM
CO/N=C(\C(=O)N[C@@H]1C(=O)N2C(C(=O)[O-])=C(C[n+]3cccc4c3CCC4)CS[C@H]12)c1csc(N)n1 [CEFPIROME]	> 30 µM	> 30 µM	> 30 µM	> 30 µM	> 30 µM	> 30 µM	> 30 µM	> 30 µM	> 30 µM	> 30 µM	> 30 µM	> 30 µM	> 30 µM
Nc1ncnc(Nc2ccc(Cl)cc2)n1 [CHLORAZANIL]	> 30 µM	> 30 µM	> 30 µM	19.7 µM	> 30 µM	> 30 µM	> 30 µM	> 30 µM	5.4 µM	> 30 µM	> 30 µM	> 30 µM	> 30 µM
CCC(=O)O[C@@H]1CC(=O)O[C@H](C)C/C=C/C=C/[C@H](OC(C)=O)[C@H](C)C[C@H](CC=O)[C@H](O[C@@H]2O[C@H](C)[C@@H](O[C@H]3C[C@@](C)(OC(C)=O)[C@@H](OC(=O)CC)[C@H](C)O3)[C@H](N(C)C)[C@H]2O)[C@H]1OC [MIOCAMYCIN]	> 30 µM	–	> 30 µM	> 30 µM	> 30 µM	> 30 µM	> 30 µM	> 30 µM	> 30 µM	> 30 µM	> 30 µM	> 30 µM	> 30 µM
c1ccc2c(CC3=NCCN3)cccc2c1 [NAPHAZOLINE]	8.37 µM	–	> 30 µM	> 30 µM	> 30 µM	> 30 µM	> 30 µM	0.114 µM	> 30 µM	> 30 µM	> 30 µM	> 30 µM	> 30 µM
N[C@@H](Cc1c[nH]c2ccc(O)cc12)C(=O)O [OXITRIPTAN]	> 30 µM	> 30 µM	> 30 µM	> 30 µM	> 3 µM	15.5 µM	> 30 µM	–	> 30 µM	> 30 µM	> 30 µM	10.1 µM	> 30 µM
CO[C@H]1/C=C/O[C@@]2(C)Oc3c(C)c(O)c4c(O)c(cc(O)c4c3C2=O)NC(=O)/C(C)=C\C=C\[C@H](C)[C@H](O)[C@@H](C)[C@@H](O)[C@@H](C)[C@H](OC(C)=O)[C@@H]1C [RIFAMYCIN]	> 30 µM	–	> 30 µM	> 30 µM	> 30 µM	> 30 µM	> 30 µM	> 30 µM	> 30 µM	28.7 µM	> 30 µM	> 30 µM	> 30 µM
CCSc1ccc2c(c1)N(CCCN1CCN(C)CC1)c1ccccc1S2 [THIETHYLPERAZINE]	2.69 µM	–	2.24 µM	> 30 µM	> 0.3 µM	4.88 µM	> 30 µM	0.449 µM	1.65 µM	26.5 µM	> 30 µM	> 30 µM	13 µM

Source: ChEMBL document CHEMBL5291721, “A preclinical secondary pharmacology resource illuminates target-adverse drug reaction associations of marketed drugs” (Nat Commun, 2023)
